Source: patent publication US10363239B2, “Method for inhibiting growth of cancer cells” (Pain Therapeutics, Inc., priority 2013, dated 2019)

target: FLNA pentapeptide of SEQ ID NO: 1 (Bn-VAKGL) (Homo sapiens, UniProt P21333); assay: FITC-NLX-based FLNA screening assay (inhibition of FITC-naloxone binding to Bn-VAKGL on streptavidin plates); conditions: read-out: Percent Binding Inhibition, FLNA-binding compound 0.01 μM; 10 nM FITC-NLX

Row | SMILES | inhibition at 0.01 µM [%]
1 | O=S(=O)(c1ccc(-c2ccccc2)cc1)N1CCC2(CC1)OCCN2S(=O)(=O)c1ccc(-c2ccccc2)cc1 [Compound C0010] | 39.8
2 | COCOc1ccc(CCC(=O)CC2c3c(cc4c(c3OC)OCO4)CC[N+]2(C)C)cc1 (stereo not drawn) [Compound B0040] | 40
3 | COc1ccc(C(=O)CC2c3c(cc4c(c3OC)OCO4)CC[N+]2(C)C)cc1C (stereo not drawn) [Compound B0021] | 32.5
4 | CC1CCC(C(C)C)C(OCC(O)CN2CCCc3ccccc32)C1 (stereo not drawn) [Compound A0068] | 51.9
5 | COc1ccc(S(=O)(=O)N2CCOC23CCN(S(=O)(=O)c2ccc(C(C)=O)cc2)CC3)cc1 [Compound C0047] | 30.8
6 | COc1ccccc1S(=O)(=O)N1CCC2(CC1)OCCN2S(=O)(=O)c1ccccc1OC [Compound C0003] | 38.3

same assay, conditions: read-out: Percent Binding Inhibition, FLNA-binding compound 0.1 μM; 10 nM FITC-NLX

Row | SMILES | inhibition at 0.1 µM [%]
7 | O=S(=O)(c1ccc(-c2ccccc2)cc1)N1CCC2(CC1)OCCN2S(=O)(=O)c1ccc(-c2ccccc2)cc1 [Compound C0010] | 42.7
8 | COCOc1ccc(CCC(=O)CC2c3c(cc4c(c3OC)OCO4)CC[N+]2(C)C)cc1 (stereo not drawn) [Compound B0040] | 53.1
9 | COc1ccc(C(=O)CC2c3c(cc4c(c3OC)OCO4)CC[N+]2(C)C)cc1C (stereo not drawn) [Compound B0021] | 43.1
10 | CC1CCC(C(C)C)C(OCC(O)CN2CCCc3ccccc32)C1 (stereo not drawn) [Compound A0068] | 54.2
11 | COc1ccc(S(=O)(=O)N2CCOC23CCN(S(=O)(=O)c2ccc(C(C)=O)cc2)CC3)cc1 [Compound C0047] | 35.2
12 | COc1ccccc1S(=O)(=O)N1CCC2(CC1)OCCN2S(=O)(=O)c1ccccc1OC [Compound C0003] | 45.3

same assay, conditions: read-out: Percent Binding Inhibition, FLNA-binding compound 1 μM; 10 nM FITC-NLX

Row | SMILES | inhibition at 1 µM [%]
13 | O=S(=O)(c1ccc(-c2ccccc2)cc1)N1CCC2(CC1)OCCN2S(=O)(=O)c1ccc(-c2ccccc2)cc1 [Compound C0010] | 47.1
14 | COCOc1ccc(CCC(=O)CC2c3c(cc4c(c3OC)OCO4)CC[N+]2(C)C)cc1 (stereo not drawn) [Compound B0040] | 57.1
15 | COc1ccc(C(=O)CC2c3c(cc4c(c3OC)OCO4)CC[N+]2(C)C)cc1C (stereo not drawn) [Compound B0021] | 47.6
16 | CC1CCC(C(C)C)C(OCC(O)CN2CCCc3ccccc32)C1 (stereo not drawn) [Compound A0068] | 58.3
17 | COc1ccc(S(=O)(=O)N2CCOC23CCN(S(=O)(=O)c2ccc(C(C)=O)cc2)CC3)cc1 [Compound C0047] | 41.4
18 | COc1ccccc1S(=O)(=O)N1CCC2(CC1)OCCN2S(=O)(=O)c1ccccc1OC [Compound C0003] | 48.8

system: mu opiate receptor (MOR); assay: MOR agonist activity using [35S]GTPγS binding assay in striatal membranes; type: biochemical; conditions: 0.1 μM compound
In short: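 Striatal membranes (200 μg) were preincubated 5 min at 30 °C in HEPES pH 7.5 with 100 mM NaCl, 1 mM MgCl2 and 0.5 nM [35S]GTPγS, then 5 min more with 0.1–10 μM compound. Gαo was immunoprecipitated and bound radioactivity counted by scintillation.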

Row | SMILES | MOR agonist activity ([35S]GTPγS binding), FLNA-Binding Compound as Agonist 0.1 μM [%]
19 | CC1CCC(C(C)C)C(OCC(O)CN2CCCc3ccccc32)C1 (stereo not drawn) [Compound A0068] | 73.9

same assay, conditions: 0.1 μM compound relative to DAMGO

Row | SMILES | % DAMGO (0.1 μM) [%]
20 | CC1CCC(C(C)C)C(OCC(O)CN2CCCc3ccccc32)C1 (stereo not drawn) [Compound A0068] | 36.8

same assay, conditions: 1 μM compound

Row | SMILES | MOR agonist activity ([35S]GTPγS binding), FLNA-Binding Compound as Agonist 1 μM [%]
21 | CC1CCC(C(C)C)C(OCC(O)CN2CCCc3ccccc32)C1 (stereo not drawn) [Compound A0068] | 110.4

same assay, conditions: 1 μM compound + 1 μM β-funaltrexamine

Row | SMILES | MOR agonist activity ([35S]GTPγS binding), FLNA-Binding Compound as Agonist 1 μM + BFNA [%]
22 | CC1CCC(C(C)C)C(OCC(O)CN2CCCc3ccccc32)C1 (stereo not drawn) [Compound A0068] | 98.1

same assay, conditions: 1 μM compound + BFNA relative to DAMGO + BFNA

Row | SMILES | % DAMGO + BFNA [%]
23 | CC1CCC(C(C)C)C(OCC(O)CN2CCCc3ccccc32)C1 (stereo not drawn) [Compound A0068] | 182.0

same assay, conditions: 1 μM compound relative to DAMGO

Row | SMILES | % DAMGO (1 μM) [%]
24 | CC1CCC(C(C)C)C(OCC(O)CN2CCCc3ccccc32)C1 (stereo not drawn) [Compound A0068] | 35.2

same assay, conditions: Series B; 0.1 μM compound, relative to DAMGO

Row | SMILES | % DAMGO (0.1 μM) [%]
25 | COCOc1ccc(CCC(=O)CC2c3c(cc4c(c3OC)OCO4)CC[N+]2(C)C)cc1 (stereo not drawn) [Compound B0040] | 93.2
26 | COc1ccc(C(=O)CC2c3c(cc4c(c3OC)OCO4)CC[N+]2(C)C)cc1C (stereo not drawn) [Compound B0021] | 75.9

same assay, conditions: Series B; 0.1 μM compound; [35S]GTPγS binding to Gαo, striatal membranes

Row | SMILES | MOR agonist activity, percent [35S]GTPγS binding at the stated compound concentration [%]
27 | COCOc1ccc(CCC(=O)CC2c3c(cc4c(c3OC)OCO4)CC[N+]2(C)C)cc1 (stereo not drawn) [Compound B0040] | 146.0
28 | COc1ccc(C(=O)CC2c3c(cc4c(c3OC)OCO4)CC[N+]2(C)C)cc1C (stereo not drawn) [Compound B0021] | 126.9

same assay, conditions: Series B; 1 μM compound + 1 μM β-FNA

Row | SMILES | MOR agonist activity, percent [35S]GTPγS binding at the stated compound concentration [%]
29 | COCOc1ccc(CCC(=O)CC2c3c(cc4c(c3OC)OCO4)CC[N+]2(C)C)cc1 (stereo not drawn) [Compound B0040] | 55.3
30 | COc1ccc(C(=O)CC2c3c(cc4c(c3OC)OCO4)CC[N+]2(C)C)cc1C (stereo not drawn) [Compound B0021] | 42.9

same assay, conditions: Series B; 1 μM compound + β-FNA, relative to DAMGO + BFNA

Row | SMILES | % DAMGO + BFNA [%]
31 | COCOc1ccc(CCC(=O)CC2c3c(cc4c(c3OC)OCO4)CC[N+]2(C)C)cc1 (stereo not drawn) [Compound B0040] | 169.6
32 | COc1ccc(C(=O)CC2c3c(cc4c(c3OC)OCO4)CC[N+]2(C)C)cc1C (stereo not drawn) [Compound B0021] | 123.6

same assay, conditions: Series B; 1 μM compound, relative to DAMGO

Row | SMILES | % DAMGO (1 μM) [%]
33 | COCOc1ccc(CCC(=O)CC2c3c(cc4c(c3OC)OCO4)CC[N+]2(C)C)cc1 (stereo not drawn) [Compound B0040] | 105.1
34 | COc1ccc(C(=O)CC2c3c(cc4c(c3OC)OCO4)CC[N+]2(C)C)cc1C (stereo not drawn) [Compound B0021] | 104.7

same assay, conditions: Series B; 1 μM compound; [35S]GTPγS binding to Gαo, striatal membranes

Row | SMILES | MOR agonist activity, percent [35S]GTPγS binding at the stated compound concentration [%]
35 | COCOc1ccc(CCC(=O)CC2c3c(cc4c(c3OC)OCO4)CC[N+]2(C)C)cc1 (stereo not drawn) [Compound B0040] | 243.3
36 | COc1ccc(C(=O)CC2c3c(cc4c(c3OC)OCO4)CC[N+]2(C)C)cc1C (stereo not drawn) [Compound B0021] | 256.4

same assay, conditions: Series C-1; 0.1 μM compound, relative to DAMGO

Row | SMILES | % DAMGO (0.1 μM) [%]
37 | O=S(=O)(c1ccc(-c2ccccc2)cc1)N1CCC2(CC1)OCCN2S(=O)(=O)c1ccc(-c2ccccc2)cc1 [Compound C0010] | 80.7
38 | COc1ccc(S(=O)(=O)N2CCOC23CCN(S(=O)(=O)c2ccc(C(C)=O)cc2)CC3)cc1 [Compound C0047] | 98.1
39 | COc1ccccc1S(=O)(=O)N1CCC2(CC1)OCCN2S(=O)(=O)c1ccccc1OC [Compound C0003] | 91.9

same assay, conditions: Series C-1; 0.1 μM compound; [35S]GTPγS binding to Gαo, striatal membranes

Row | SMILES | Concentration of FLNA-Binding Compound as Agonist 0.1 μM [%]
40 | O=S(=O)(c1ccc(-c2ccccc2)cc1)N1CCC2(CC1)OCCN2S(=O)(=O)c1ccc(-c2ccccc2)cc1 [Compound C0010] | 136.5
41 | COc1ccc(S(=O)(=O)N2CCOC23CCN(S(=O)(=O)c2ccc(C(C)=O)cc2)CC3)cc1 [Compound C0047] | 142.2
42 | COc1ccccc1S(=O)(=O)N1CCC2(CC1)OCCN2S(=O)(=O)c1ccccc1OC [Compound C0003] | 162.3

same assay, conditions: Series C-1; 1 μM compound + 1 μM β-FNA

Row | SMILES | Concentration of FLNA-Binding Compound as Agonist 1 μM + BFNA [%]
43 | O=S(=O)(c1ccc(-c2ccccc2)cc1)N1CCC2(CC1)OCCN2S(=O)(=O)c1ccc(-c2ccccc2)cc1 [Compound C0010] | 89.1
44 | COc1ccc(S(=O)(=O)N2CCOC23CCN(S(=O)(=O)c2ccc(C(C)=O)cc2)CC3)cc1 [Compound C0047] | 80.1
45 | COc1ccccc1S(=O)(=O)N1CCC2(CC1)OCCN2S(=O)(=O)c1ccccc1OC [Compound C0003] | 107.7

same assay, conditions: Series C-1; 1 μM compound + β-FNA, relative to DAMGO + BFNA

Row | SMILES | % DAMGO + BFNA [%]
46 | O=S(=O)(c1ccc(-c2ccccc2)cc1)N1CCC2(CC1)OCCN2S(=O)(=O)c1ccc(-c2ccccc2)cc1 [Compound C0010] | 135.0
47 | COc1ccc(S(=O)(=O)N2CCOC23CCN(S(=O)(=O)c2ccc(C(C)=O)cc2)CC3)cc1 [Compound C0047] | 182.0
48 | COc1ccccc1S(=O)(=O)N1CCC2(CC1)OCCN2S(=O)(=O)c1ccccc1OC [Compound C0003] | 163.9

same assay, conditions: Series C-1; 1 μM compound, relative to DAMGO

Row | SMILES | % DAMGO (1 μM) [%]
49 | O=S(=O)(c1ccc(-c2ccccc2)cc1)N1CCC2(CC1)OCCN2S(=O)(=O)c1ccc(-c2ccccc2)cc1 [Compound C0010] | 114.9
50 | COc1ccc(S(=O)(=O)N2CCOC23CCN(S(=O)(=O)c2ccc(C(C)=O)cc2)CC3)cc1 [Compound C0047] | 88.5
51 | COc1ccccc1S(=O)(=O)N1CCC2(CC1)OCCN2S(=O)(=O)c1ccccc1OC [Compound C0003] | 83.3

same assay, conditions: Series C-1; 1 μM compound; [35S]GTPγS binding to Gαo, striatal membranes

Row | SMILES | Concentration of FLNA-Binding Compound as Agonist 1 μM [%]
52 | O=S(=O)(c1ccc(-c2ccccc2)cc1)N1CCC2(CC1)OCCN2S(=O)(=O)c1ccc(-c2ccccc2)cc1 [Compound C0010] | 307.0
53 | COc1ccc(S(=O)(=O)N2CCOC23CCN(S(=O)(=O)c2ccc(C(C)=O)cc2)CC3)cc1 [Compound C0047] | 206.1
54 | COc1ccccc1S(=O)(=O)N1CCC2(CC1)OCCN2S(=O)(=O)c1ccccc1OC [Compound C0003] | 215.9
